Source: PubChem BioAssay (NCI)
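Test compounds were applied to cells in 96-well plates for 48 hours at 5 doses. Definition used: TGI = concentration required for complete inhibition of growth.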

How the values were obtained:
Assay in all cases: NCI tumour cell line growth inhibition, 48 h
[1] = system: 786-0 renal
[2] = system: A498 renal
[3] = system: A549 NSCLC
[4] = system: ACHN renal
[5] = system: BT-549 breast
[6] = system: CAKI-1 renal
[7] = system: CCRF-CEM leukemia
[8] = system: COLO 205 colon
[9] = system: DU-145 prostate
[10] = system: EKVX NSCLC
[11] = system: HCC-2998 colon
[12] = system: HCT-116 colon
[13] = system: HCT-15 colon
[14] = system: HOP-62 NSCLC
[15] = system: HOP-92 NSCLC
[16] = system: HS 578T breast
[17] = system: IGROV1 ovarian
[18] = system: K-562 leukemia
[19] = system: KM12 colon
[20] = system: LOX IMVI melanoma
[21] = system: M14 melanoma
[22] = system: MALME-3M melanoma
[23] = system: MCF7 breast
[24] = system: MDA-MB-231 breast
[25] = system: MDA-MB-435
[26] = system: MDA-N
[27] = system: MOLT-4 leukemia
[28] = system: NCI-H226 lung
[29] = system: NCI-H23 lung
[30] = system: NCI-H460 lung
[31] = system: NCI-H522 lung
[32] = system: NCI/ADR-RES ovarian
[33] = system: OVCAR-3 ovarian
[34] = system: OVCAR-4 ovarian
[35] = system: OVCAR-5 ovarian
[36] = system: OVCAR-8 ovarian
[37] = system: PC-3 prostate
[38] = system: RPMI-8226 leukemia
[39] = system: RXF 393 renal
[40] = system: SF-268 CNS
[41] = system: SF-295 CNS
[42] = system: SF-539 CNS
[43] = system: SK-MEL-2 melanoma
[44] = system: SK-MEL-28 melanoma
[45] = system: SK-MEL-5 melanoma
[46] = system: SK-OV-3 ovarian
[47] = system: SN12C renal
[48] = system: SNB-19 CNS
[49] = system: SNB-75 CNS
[50] = system: SR leukemia
[51] = system: SW-620 colon
[52] = system: T-47D breast
[53] = system: TK-10 renal
[54] = system: U251 CNS
[55] = system: UACC-257 melanoma
[56] = system: UACC-62 melanoma
[57] = system: UO-31 renal
[58] = system: HL-60(TB) leukemia
[59] = system: HT29 colon

Measured: TGI

Nc1ncnc2c1ncn2[C@H]1C=C[C@@H](NO)C1
not listed: [58] | [59]
> 100 µM: all other assays above

O=C(O)c1cccc(S(=O)(=O)NCCO)c1
not listed: [11]
> 100 µM: all other assays above
